# Measured values: US6914122B2 (priority 2000, dated 2005)
# *1 amine or outer side, *2 acyl side, *3 side chain or, on linkers, in order; H or OH if unused. Where a SMILES comes first, the peptide text is derived from it. Bridges are numbered along the chain shown (N, C = ends). [ ]: non-standard residue; d: D form. The star is where a group is joined. ξ: configuration not given here. Phe(3-(CH2)7CO) = O=C([C@H](Cc1cccc(CCCCCCCC(=O)[*:3])c1)N[*:1])[*:2]; Heptanedioyl = O=C(CCCCCC(=O)[*:2])[*:1]; Azelaoyl = O=C(CCCCCCCC(=O)[*:2])[*:1]; Suberoyl = O=C(CCCCCCC(=O)[*:2])[*:1]; Adipoyl = O=C(CCCCC(=O)[*:2])[*:1]; Glutaryl = O=C(CCCC(=O)[*:2])[*:1]; X1 = CCCC(N[*:1])C(=O)C(=O)[*:2]; Chg = N[C@H](C(=O)O)C1CCCCC1; Phg = N[C@H](C(=O)O)c1ccccc1; Suc = O=C(CCC(=O)[*:2])[*:1]; ξChg = NC(C(=O)O)C1CCCCC1; OtBu = CC(C)(C)O*
# Biological target: Recombinant heterodimeric HCV NS3/NS4A protease (strain 1a) (Hepatitis C virus genotype 1a, UniProt P27958)
# Sequence (P27958 1027-1657 limits assumed): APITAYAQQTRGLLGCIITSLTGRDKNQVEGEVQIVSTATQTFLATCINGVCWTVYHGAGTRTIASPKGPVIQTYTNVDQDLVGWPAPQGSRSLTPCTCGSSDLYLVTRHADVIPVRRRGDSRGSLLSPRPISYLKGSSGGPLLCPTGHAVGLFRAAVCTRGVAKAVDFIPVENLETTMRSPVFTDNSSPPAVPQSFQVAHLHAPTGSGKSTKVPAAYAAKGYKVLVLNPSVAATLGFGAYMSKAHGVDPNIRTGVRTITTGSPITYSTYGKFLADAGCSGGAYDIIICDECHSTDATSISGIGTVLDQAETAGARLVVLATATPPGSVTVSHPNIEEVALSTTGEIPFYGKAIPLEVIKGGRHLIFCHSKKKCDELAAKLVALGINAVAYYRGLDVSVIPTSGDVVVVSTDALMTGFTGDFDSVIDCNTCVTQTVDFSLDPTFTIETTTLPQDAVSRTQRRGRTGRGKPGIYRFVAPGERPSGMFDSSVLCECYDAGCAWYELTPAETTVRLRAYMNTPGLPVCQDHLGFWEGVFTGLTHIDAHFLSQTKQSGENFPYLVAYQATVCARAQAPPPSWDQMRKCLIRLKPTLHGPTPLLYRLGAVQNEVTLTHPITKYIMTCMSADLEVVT
# Sequence (P27958 1658-1711 partner limits assumed): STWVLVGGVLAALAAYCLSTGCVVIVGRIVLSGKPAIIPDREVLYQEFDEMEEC
# Assay: biochemical
# Parameters: species or system HCV (strain 1a)
row,Compound,Ki [nM]
1,CCCC(NC(=O)C1Cc2cccc(c2)Oc2ccc(cc2)CCC(=O)NC(C2CCCCC2)C(=O)N1)C(=O)C(=O)NCC(=O)NC(C(=O)O)c1ccccc1 (centres unmarked) [Example 2],1 to 1000
2,CCCC(NC(=O)C1Cc2cccc(c2)Oc2ccc(cc2)CCC(=O)NC(C2CCCCC2)C(=O)N1)C(=O)C(=O)NCC(=O)OC(C)(C)C (centres unmarked) [Example 3],1100 to 100000
3,CCCC(NC(=O)C1Cc2cccc(c2)Oc2ccc(cc2)CCC(=O)NC(C2CCCCC2)C(=O)N1)C(=O)C(=O)NCC(=O)O (centres unmarked) [Example 4],1100 to 100000
4,CCCC(NC(=O)C1Cc2cccc(c2)Oc2ccc(cc2)CCCC(=O)NC(C2CCCCC2)C(=O)N1)C(=O)C(=O)NCC(=O)NC(C(=O)O)c1ccccc1 (centres unmarked) [Example 6],1 to 1000
5,CCCC(NC(=O)C1Cc2cccc(c2)Oc2ccc(cc2)CCCCC(=O)NC(C2CCCCC2)C(=O)N1)C(=O)C(=O)NCC(=O)NC(C(=O)OC(C)(C)C)c1ccccc1 (centres unmarked) [Example 7],1100 to 100000
6,CCCC(NC(=O)C1Cc2cccc(c2)Oc2ccc(cc2)CCCCC(=O)NC(C2CCCCC2)C(=O)N1)C(=O)C(=O)NCC(=O)NC(C(=O)O)c1ccccc1 (centres unmarked) [Example 8],1 to 1000
7,CCCC(NC(=O)C1Cc2cccc(c2)Oc2ccc(cc2)CCC(=O)NCC(=O)N1)C(=O)C(=O)NCC(=O)NC(C(=O)O)c1ccccc1 (centres unmarked) [Example 10],1100 to 100000
8,CCCC(NC(=O)[C@@H]1Cc2cccc(c2)OCCCCCCC(=O)N[C@@H](C2CCCCC2)C(=O)N1)C(=O)C(=O)NCC(=O)N[C@H](C(=O)OC(C)(C)C)c1ccccc1 (some centres unmarked) [Example 11],1100 to 100000
9,CCCC(NC(=O)[C@@H]1Cc2cccc(c2)OCCCCCCC(=O)N[C@@H](C2CCCCC2)C(=O)N1)C(=O)C(=O)NCC(=O)N[C@H](C(=O)O)c1ccccc1 (some centres unmarked) [Example 12],1 to 1000
10,CCCC(NC(=O)[C@@H]1Cc2cccc(c2)OCCCCCC(=O)N[C@@H](C2CCCCC2)C(=O)N1)C(=O)C(=O)NCC(=O)N[C@H](C(=O)OC(C)(C)C)c1ccccc1 (some centres unmarked) [Example 13],1100 to 100000
11,CCCC(NC(=O)[C@@H]1Cc2cccc(c2)OCCCCCC(=O)N[C@@H](C2CCCCC2)C(=O)N1)C(=O)C(=O)NCC(=O)N[C@H](C(=O)O)c1ccccc1 (some centres unmarked) [Example 14],1100 to 100000
12,CCCC(NC(=O)[C@@H]1Cc2cccc(c2)C=CCCCCCC(=O)N[C@@H](C2CCCCC2)C(=O)N1)C(=O)C(=O)NCC(=O)N[C@H](C(=O)OC(C)(C)C)c1ccccc1 (some centres unmarked) [Example 15],1100 to 100000
13,CCCC(NC(=O)[C@@H]1Cc2cccc(c2)C=CCCCCCC(=O)N[C@@H](C2CCCCC2)C(=O)N1)C(=O)C(=O)NCC(=O)N[C@H](C(=O)O)c1ccccc1 (some centres unmarked) [Example 16],1 to 1000
14,CCCC(NC(=O)[C@@H]1Cc2cccc(c2)CCCCCCCC(=O)N[C@@H](C2CCCCC2)C(=O)N1)C(=O)C(=O)NCC(=O)N[C@H](C(=O)OC(C)(C)C)c1ccccc1 (some centres unmarked) [Example 17] ([Chg][Phe(3-(CH2)7CO)][X1]G[Phg]-OtBu; lactam N-2),1100 to 100000
15,CCCC(NC(=O)[C@@H]1Cc2cccc(c2)CCCCCCCC(=O)N[C@@H](C2CCCCC2)C(=O)N1)C(=O)C(=O)NCC(=O)N[C@H](C(=O)O)c1ccccc1 (some centres unmarked) [Example 18] ([Chg][Phe(3-(CH2)7CO)][X1]G[Phg]-OH; lactam N-2),1 to 1000
16,CCCC(NC(=O)[C@@H]1Cc2cccc(c2)OCCCCCNC(=O)N[C@@H](C2CCCCC2)C(=O)N1)C(=O)C(=O)NCC(=O)N[C@H](C(=O)OC(C)(C)C)c1ccccc1 (some centres unmarked) [Example 19],1100 to 100000
17,CCCC(NC(=O)[C@@H]1Cc2cccc(c2)OCCCCCNC(=O)N[C@@H](C2CCCCC2)C(=O)N1)C(=O)C(=O)NCC(=O)N[C@H](C(=O)O)c1ccccc1 (some centres unmarked) [Example 20],1 to 1000
18,CCCC(NC(=O)[C@@H]1Cc2cccc(c2)OCCCCCCOC(=O)N[C@@H](C2CCCCC2)C(=O)N1)C(=O)C(=O)NCC(=O)N[C@H](C(=O)O)c1ccccc1 (some centres unmarked) [Example 22],1 to 1000
19,CCCC(NC(=O)C1Cc2cn(cn2)CCCCCCCC(=O)NC(C2CCCCC2)C(=O)N1)C(=O)C(=O)NCC(=O)NC(C(=O)OC(C)(C)C)c1ccccc1 (centres unmarked) [Example 23],1100 to 100000
20,CCCC(NC(=O)[C@@H]1Cc2cn(cn2)CCCCCCCC(=O)N[C@@H](C2CCCCC2)C(=O)N1)C(=O)C(=O)NCC(=O)N[C@H](C(=O)O)c1ccccc1 (some centres unmarked) [Example 24],1100 to 100000
21,CCCC(NC(=O)C1Cc2cccc(c2)Oc2ccc(cc2)CC(NC(=O)OC(C)(C)C)C(=O)NC(C2CCCCC2)C(=O)N1)C(=O)C(=O)NCC(=O)O (centres unmarked) [Example 28],1100 to 100000
22,CCCC(NC(=O)C1Cc2cccc(c2)Oc2ccc(cc2)CC(NC(C)=O)C(=O)NC(C2CCCCC2)C(=O)N1)C(=O)C(=O)NCC(=O)NC(C(=O)OC(C)(C)C)c1ccccc1 (centres unmarked) [Example 29],1100 to 100000

row,Compound,Ki [nM]
1,CCCC(NC(=O)[C@@H]1Cc2cccc(c2)Oc2ccc(cc2)CC(NC(C)=O)C(=O)N[C@@H](C2CCCCC2)C(=O)N1)C(=O)C(=O)NCC(=O)N[C@H](C(=O)O)c1ccccc1 (some centres unmarked) [Example 30],1 to 1000
2,CCCC(NC(=O)C1Cc2cccc(c2)Oc2ccc(cc2)CC(NC(C)=O)C(=O)NC(C2CCCCC2)C(=O)N1)C(=O)C(=O)NCC(=O)OC(C)(C)C (centres unmarked) [Example 31],1100 to 100000
3,CCCC(NC(=O)[C@@H]1Cc2cccc(c2)Oc2ccc(cc2)CC(NC(C)=O)C(=O)N[C@@H](C2CCCCC2)C(=O)N1)C(=O)C(=O)NCC(=O)O (some centres unmarked) [Example 32],1100 to 100000
4,CCCC(NC(=O)C1Cc2cccc(c2)Oc2ccc(cc2)CCC(=O)NC(C2CCCCC2)C(=O)O1)C(=O)C(=O)NCC(=O)NC(C(=O)OC(C)(C)C)c1ccccc1 (centres unmarked) [Example 33],1100 to 100000
5,CCCC(NC(=O)C1Cc2cccc(c2)Oc2ccc(cc2)CCC(=O)NC(C2CCCCC2)C(=O)O1)C(=O)C(=O)NCC(=O)NC(C(=O)O)c1ccccc1 (centres unmarked) [Example 34],1100 to 100000
6,CCCC(NC(=O)[C@H]1Cc2cccc(c2)Oc2ccc(cc2)CCC(=O)N[C@@H](C2CCCCC2)C(=O)O1)C(=O)C(=O)NCC(=O)N[C@H](C(=O)OC(C)(C)C)c1ccccc1 (some centres unmarked) [Example 37],1100 to 100000
7,CCCC(NC(=O)[C@H]1Cc2cccc(c2)Oc2ccc(cc2)CCC(=O)N[C@@H](C2CCCCC2)C(=O)O1)C(=O)C(=O)NCC(=O)N[C@H](C(=O)O)c1ccccc1 (some centres unmarked) [Example 38],1100 to 100000
8,CCCC(NC(=O)C1Cc2cccc(c2)OCCCCCCOC(=O)NC(C2CCCCC2)C(=O)N1)C(=O)C(=O)NCC(=O)N[C@H](C(=O)N(C)C)c1ccccc1 (some centres unmarked) [Example 39],1 to 1000
9,CCCC(NC(=O)[C@@H]1CCCCNC(=O)CCCC(=O)NC(C2CCCCC2)C(=O)N1)C(=O)C(=O)NCC(=O)N[C@H](C(N)=O)c1ccccc1 (some centres unmarked) [Example 40] ([ξChg]K[X1]G[Phg]-NH2; linker N-2 via Glutaryl),1100 to 100000
10,CCCC(NC(=O)[C@@H]1CCCCNC(=O)CCCCCCC(=O)N[C@@H](C2CCCCC2)C(=O)N1)C(=O)C(=O)NCC(=O)N[C@H](C(N)=O)c1ccccc1 (some centres unmarked) [Example 41] ([Chg]K[X1]G[Phg]-NH2; linker N-2 via Suberoyl),1 to 1000
11,CCCC(NC(=O)[C@@H]1CCCCNC(=O)CCCCCCCC(=O)N[C@@H](C2CCCCC2)C(=O)N1)C(=O)C(=O)NCC(=O)N[C@H](C(N)=O)c1ccccc1 (some centres unmarked) [Example 42] ([Chg]K[X1]G[Phg]-NH2; linker N-2 via Azelaoyl),1100 to 100000
12,CCCC(NC(=O)[C@@H]1CCCCNC(=O)Cc2cccc(c2)CC(=O)N[C@@H](C2CCCCC2)C(=O)N1)C(=O)C(=O)NCC(=O)N[C@H](C(N)=O)c1ccccc1 (some centres unmarked) [Example 43],1 to 1000
13,CCCC(NC(=O)[C@@H]1CCCCNC(=O)Cc2ccc(cc2)CC(=O)N[C@@H](C2CCCCC2)C(=O)N1)C(=O)C(=O)NCC(=O)N[C@H](C(N)=O)c1ccccc1 (some centres unmarked) [Example 44],1 to 1000
14,CCCC(NC(=O)[C@@H]1CCCCNC(=O)CCC(=O)N[C@H](CC(=O)O)C(=O)N[C@@H](C2CCCCC2)C(=O)N1)C(=O)C(=O)NCC(=O)N[C@H](C(N)=O)c1ccccc1 (some centres unmarked) [Example 45] ([dD][Chg]K[X1]G[Phg]-NH2; linker N-3 via Suc),1100 to 100000
15,CCCC(NC(=O)[C@@H]1CCCCNC(=O)CCCC(=O)N[C@H](CC(=O)O)C(=O)N[C@@H](C2CCCCC2)C(=O)N1)C(=O)C(=O)NCC(=O)N[C@H](C(N)=O)c1ccccc1 (some centres unmarked) [Example 46] ([dD][Chg]K[X1]G[Phg]-NH2; linker N-3 via Glutaryl),1100 to 100000
16,CCCC(NC(=O)[C@@H]1CCCCNC(=O)CCC(=O)N[C@H](CCC(=O)O)C(=O)N[C@@H](C2CCCCC2)C(=O)N1)C(=O)C(=O)NCC(=O)N[C@H](C(N)=O)c1ccccc1 (some centres unmarked) [Example 47] ([dE][Chg]K[X1]G[Phg]-NH2; linker N-3 via Suc),1100 to 100000
17,CCCC(NC(=O)[C@@H]1CCCCNC(=O)CCCC(=O)N[C@H](CCC(=O)O)C(=O)N[C@@H](C2CCCCC2)C(=O)N1)C(=O)C(=O)NCC(=O)N[C@H](C(N)=O)c1ccccc1 (some centres unmarked) [Example 48] ([dE][Chg]K[X1]G[Phg]-NH2; linker N-3 via Glutaryl),1100 to 100000
18,CCCC(NC(=O)[C@@H]1CCCCNC(=O)CCC(=O)NCC(=O)N[C@@H](C2CCCCC2)C(=O)N1)C(=O)C(=O)NCC(=O)N[C@H](C(N)=O)c1ccccc1 (some centres unmarked) [Example 49] (G[Chg]K[X1]G[Phg]-NH2; linker N-3 via Suc),1100 to 100000
19,CCCC(NC(=O)[C@@H]1CCCCNC(=O)CCCC(=O)NCC(=O)N[C@@H](C2CCCCC2)C(=O)N1)C(=O)C(=O)NCC(=O)N[C@H](C(N)=O)c1ccccc1 (some centres unmarked) [Example 50] (G[Chg]K[X1]G[Phg]-NH2; linker N-3 via Glutaryl),1100 to 100000
20,CCCC(NC(=O)[C@@H]1CCCCNC(=O)CCC(=O)N[C@@H](C2CCCCC2)C(=O)N1)C(=O)C(=O)NCC(=O)N[C@H](C(N)=O)c1ccccc1 (some centres unmarked) [Example 51] ([Chg]K[X1]G[Phg]-NH2; linker N-2 via Suc),1100 to 100000
21,CCCC(NC(=O)[C@@H]1CCCCNC(=O)CCCCC(=O)N[C@@H](C2CCCCC2)C(=O)N1)C(=O)C(=O)NCC(=O)N[C@H](C(N)=O)c1ccccc1 (some centres unmarked) [Example 52] ([Chg]K[X1]G[Phg]-NH2; linker N-2 via Adipoyl),1 to 1000
22,CCCC(NC(=O)[C@@H]1CCCCNC(=O)CCCCCC(=O)N[C@@H](C2CCCCC2)C(=O)N1)C(=O)C(=O)NCC(=O)N[C@H](C(N)=O)c1ccccc1 (some centres unmarked) [Example 53] ([Chg]K[X1]G[Phg]-NH2; linker N-2 via Heptanedioyl),1 to 1000
